The data set has as its system HUVECs. Format: cell-based, human. On the procedure: Cell viability was detected by a methanethiosulfonate (MTS) assay. In brief, 2×10^4 HUVECs were seeded to a 48-well plates in 100 μl endothelial cell medium (ECM, ScienCell Research Laboratory, Cat. 1001, USA) per well and incubated for 24 hrs. The media was removed and the cells were then incubated with media having 2% fetal bovine serum (FBS), in the absence or presence of various peptides, such as PLY, PLY123, PLY4, C70PLY4 or N35PLY4, at a concentration of 1, 10 or 100 nM. After incubation for 18 hours, the media was removed and 20 μl MTS reagents (20%) were added to each well in the final volume of 100 μl and placed in incubator for 1 hours. The optical density was measured at 490 nm using a plate reader.

In the case of “QDLTAHFTTSIPLKGNVRNLSVKIRECTGLAWEWWRTVYEKTDLPLVRKRTISIWGTTLYPQVEDKVEND [C70PLY4]”, the “toxicity to HUVECs (FIG. 15)” value (MTS assay, 1, 10 or 100 nM, statement for high concentration (100 nM)) is recorded as “no toxic effects”. Besides, where the note is “MTS assays, 100 nM or below, data not shown”, the “toxic effects to HUVECs at 100 nM or below” value was “no toxic effects”.

(Values after patent US10287328B2, “Treatment of diabetes, toll-like receptor 4 modulators and methods for using the same” (KeMyth Biotech Co., Ltd., priority 2016, dated 2019).)
